This is an account of results in patent publication US20260217647A1, “CANCER CELL GROWTH INHIBITING COMPOSITION AND PROCESSED FOOD” (HAGIHARA FARM PRODUCTION INSTITUTE CO., LTD., priority 2023, published 2026).

For orientation: IC50 means the concentration needed to halve the response being measured. Low readings indicate greater potency, high ones weaker potency.

Each structure is given as a SMILES string. Where only a bound is given, the exact number is not on record here.

The experiment relates to Jurkat cells. The experiment can be described thus: Growth-inhibiting activity on human leukemia T cell line Jurkat cells (viable cell counting reagent SF, 72 h). Format: cell-based. The settings on record: 72 h incubation, cell viability by absorbance A450-A630. How it is done: The cancer cell growth-inhibiting activity of each of the above samples was evaluated using the human leukemia T cell line, Jurkat.
A suspension of Jurkat cells was prepared at 2×10^5 cells/mL, and 50 μL of the suspension was seeded into each well of a 96-well plate. The evaluation sample was dissolved in DMSO and subsequently diluted 500 fold with culture medium. Immediately after dilution, 50 μL of the resulting solution was added to each well to initiate treatment. After incubation for 72 h, 10 μL of the viable cell counting reagent SF was added to each well. Following incubation for 2 to 3 hours to allow color development, absorbance at 450 nm and 630 nm was measured using a microplate reader. Cell viability was then calculated using the following formula (F1).
As, Ab, and Ac are defined as follows. • As: absorbance of evaluation well • Ab: absorbance of negative control well • Ac: absorbance of control well
The respective “absorbances” in the above formula were calculated by subtracting the absorbance at 630 nm (A630) from the absorbance at 450 nm (A450) and was represented by “A450-A630”. Furthermore, to calculate IC50, a linear approximation was performed on a graph showing the logarithmic values of the two concentrations that most narrowly bracketed a cell viability of 50%.

`CSC/C=C(\C)CCC[C@H](C)CCC[C@H](C)CCCC(C)C` [PT37] registered a half-maximal inhibitory concentration (IC50) of more than 100 µM. The same compound returned an IC50 (Homo sapiens, Jurkat, 72 h) not below 100 µM.
